# Assay results from patent US10065941B2, “Aminotriazine derivative and pharmaceutical composition comprising the same” (Shionogi & Co., Ltd., priority 2013, dated 2018).
# Biological target: human P2X3 receptor (Homo sapiens (Human), UniProt P56373)
# Experiment: Evaluation of human P2X3 receptor inhibitory activity (Test Example 1)
# Format: cell-based
# Settings: C6BU-1 cell transfected with human P2X3 receptor gene, FLIPR 384
# Method in brief: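 FLIPR calcium read-out: signal taken as peak fluorescence after ATP addition divided by starting fluorescence, and IC50 calculated from it. Compound added 5 min before 150 nM ATP solution (pre-dispense stock) to Fluo-3-AM-loaded C6BU-1 cells stably transfected with human P2X3; HEPES buffer pH 7.5 with probenecid.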
# Chain of human P2X3 receptor (P56373 whole entry): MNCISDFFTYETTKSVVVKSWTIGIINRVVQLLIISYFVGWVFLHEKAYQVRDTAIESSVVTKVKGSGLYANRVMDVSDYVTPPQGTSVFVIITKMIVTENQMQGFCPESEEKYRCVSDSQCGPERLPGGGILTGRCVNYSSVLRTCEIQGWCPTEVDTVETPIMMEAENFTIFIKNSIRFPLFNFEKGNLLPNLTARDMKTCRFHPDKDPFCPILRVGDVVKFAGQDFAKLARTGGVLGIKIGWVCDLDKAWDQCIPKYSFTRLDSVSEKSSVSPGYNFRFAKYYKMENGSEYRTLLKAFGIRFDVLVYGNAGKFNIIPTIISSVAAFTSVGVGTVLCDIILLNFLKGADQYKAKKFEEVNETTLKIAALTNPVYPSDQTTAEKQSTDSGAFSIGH
row,Compound,IC50 [nM]
1,COC(=O)[C@@H](C)Cn1c(=O)[nH]/c(=N\c2ccc(Oc3ccccn3)cc2)n(Cc2ccc(Cl)cc2)c1=O [Compound I-126],5
2,Cc1ccc(Cn2c(=O)n(CC(C)(C)C(=O)O)c(=O)[nH]/c2=N\c2ccc(Oc3cccc(Cl)n3)cc2)cc1 [Compound I-128],8
3,COC(=O)[C@H](C)Cn1c(=O)[nH]/c(=N\c2ccc(Oc3ccccn3)cc2)n(Cc2ccc(Cl)cc2)c1=O [Compound I-131],8
4,COC(=O)[C@@H](C)Cn1c(=O)[nH]/c(=N\c2ccc(Oc3ccc(OC(F)F)cn3)cc2)n(Cc2ccc(C)cc2)c1=O [Compound I-132],8
5,COC(=O)C(C)(C)Cn1c(=O)[nH]/c(=N\c2ccc(Oc3ccc(OC(F)F)cn3)cc2)n(Cc2ccc(C)cc2)c1=O [Compound I-133],8
6,C[C@@H](C(=O)O)[C@H](C)n1c(=O)[nH]/c(=N\c2ccc(Oc3cc(C#N)ccn3)cc2)n(Cc2ccc(Cl)cc2)c1=O [Compound I-134],7
7,Cc1ccc(Cn2c(=O)n(C[C@H](C)C(=O)O)c(=O)[nH]/c2=N\c2ccc(Oc3ccc(OC(F)F)cn3)cc2)cc1 [Compound I-135],4
8,Cc1ccc(Cn2c(=O)n(CC(C)(C)C(=O)O)c(=O)[nH]/c2=N\c2ccc(Oc3ccc(OC(F)F)cn3)cc2)cc1 [Compound I-136],7
9,COC(=O)[C@H](C)[C@H](C)n1c(=O)[nH]/c(=N\c2ccc(Oc3ccc(OC(F)F)cn3)cc2)n(Cc2ccc(C)cc2)c1=O [Compound I-137],14
10,Cc1ccc(Cn2c(=O)n([C@@H](C)[C@@H](C)C(=O)O)c(=O)[nH]/c2=N\c2ccc(Oc3ccc(OC(F)F)cn3)cc2)cc1 [Compound I-138],7
11,COC(=O)[C@@H](C)Cn1c(=O)[nH]/c(=N\c2ccc(Oc3cc(OC)ccn3)cc2)n(Cc2ccc(Cl)cc2)c1=O [Compound I-139],10
12,COC(=O)[C@H](C)Cn1c(=O)[nH]/c(=N\c2ccc(Oc3ccccn3)cc2)n(Cc2ccc(C)cc2)c1=O [Compound I-140],3
13,C[C@H](Cn1c(=O)[nH]/c(=N\c2ccc(Oc3ccccn3)cc2)n(Cc2ccc(Cl)cc2)c1=O)C(=O)O [Compound I-141],14
14,COC(=O)[C@@H](C)Cn1c(=O)[nH]/c(=N\c2ccc(Oc3ccccn3)cc2)n(C[C@H]2CC[C@H](C)CC2)c1=O [Compound I-142],7
15,COC(=O)[C@H](Cn1c(=O)[nH]/c(=N\c2ccc(Oc3ccccn3)cc2)n(Cc2ccc(Cl)cc2)c1=O)OC [Compound I-143],5
16,COC(=O)[C@H](C)[C@H](C)n1c(=O)[nH]/c(=N\c2ccc(Oc3ccccn3)cc2)n(Cc2ccc(Cl)cc2)c1=O [Compound I-144],9
17,C[C@@H](Cn1c(=O)[nH]/c(=N\c2ccc(Oc3ccccn3)cc2)n(C[C@H]2CC[C@H](C)CC2)c1=O)C(=O)O [Compound I-145],6
18,CO[C@@H](Cn1c(=O)[nH]/c(=N\c2ccc(Oc3ccccn3)cc2)n(Cc2ccc(Cl)cc2)c1=O)C(=O)O [Compound I-146],5
19,C[C@@H](C(=O)O)[C@H](C)n1c(=O)[nH]/c(=N\c2ccc(Oc3ccccn3)cc2)n(Cc2ccc(Cl)cc2)c1=O [Compound I-147],7
20,Cc1ccc(Cn2c(=O)n(C[C@@H](C)C(=O)O)c(=O)[nH]/c2=N\c2ccc(Oc3ccccn3)cc2)cc1 [Compound I-148],9

row,Compound,IC50 [nM]
1,COC(=O)C(C)(C)Cn1c(=O)[nH]/c(=N\c2ccc(Oc3ccccn3)cc2)n(Cc2ccc(Cl)cc2)c1=O [Compound I-149],5
2,COC(=O)C(C)(C)Cn1c(=O)[nH]/c(=N\c2ccc(Oc3ccccn3)cc2)n(Cc2ccc(C)cc2)c1=O [Compound I-150],4
3,COC(=O)[C@@H](C)[C@@H](C)n1c(=O)[nH]/c(=N\c2ccc(Oc3ccccn3)cc2)n(Cc2ccc(Cl)cc2)c1=O [Compound I-151],10
4,C[C@H](C(=O)O)[C@@H](C)n1c(=O)[nH]/c(=N\c2ccc(Oc3ccccn3)cc2)n(Cc2ccc(Cl)cc2)c1=O [Compound I-152],6
5,COC(=O)[C@@H](C)Cn1c(=O)[nH]/c(=N\c2ccc(Oc3ncccc3OC)cc2)n(Cc2ccc(Cl)cc2)c1=O [Compound I-153],13
6,CC(C)(Cn1c(=O)[nH]/c(=N\c2ccc(Oc3ccccn3)cc2)n(Cc2ccc(Cl)cc2)c1=O)C(=O)O [Compound I-154],8
7,Cc1ccc(Cn2c(=O)n(CC(C)(C)C(=O)O)c(=O)[nH]/c2=N\c2ccc(Oc3ccccn3)cc2)cc1 [Compound I-155],8
8,COc1cccnc1Oc1ccc(/N=c2\[nH]c(=O)n(C[C@H](C)C(=O)O)c(=O)n2Cc2ccc(Cl)cc2)cc1 [Compound I-156],12
9,COC(=O)C[C@@H](C)n1c(=O)[nH]/c(=N\c2ccc(Oc3ccccn3)cc2)n(Cc2ccc(Cl)cc2)c1=O [Compound I-157],5
10,COC(=O)C[C@@H](C)n1c(=O)[nH]/c(=N\c2ccc(Oc3cccc(F)n3)cc2)n(Cc2ccc(Cl)cc2)c1=O [Compound I-158],6
11,COC(=O)C(C)(C)Cn1c(=O)[nH]/c(=N\c2ccc(Oc3ncccc3OC)cc2)n(Cc2ccc(Cl)cc2)c1=O [Compound I-159],9
12,COC(=O)C[C@@H](C)n1c(=O)[nH]/c(=N\c2ccc(Oc3ccc(F)cn3)cc2)n(Cc2ccc(Cl)cc2)c1=O [Compound I-160],5
13,COC(=O)C[C@@H](C)n1c(=O)[nH]/c(=N\c2ccc(Oc3ncccc3F)cc2)n(Cc2ccc(Cl)cc2)c1=O [Compound I-161],10
14,C[C@H](CC(=O)O)n1c(=O)[nH]/c(=N\c2ccc(Oc3cccc(F)n3)cc2)n(Cc2ccc(Cl)cc2)c1=O [Compound I-163],8
15,COc1cccnc1Oc1ccc(/N=c2\[nH]c(=O)n(CC(C)(C)C(=O)O)c(=O)n2Cc2ccc(Cl)cc2)cc1 [Compound I-164],29
16,C[C@H](CC(=O)O)n1c(=O)[nH]/c(=N\c2ccc(Oc3ccc(F)cn3)cc2)n(Cc2ccc(Cl)cc2)c1=O [Compound I-165],15
17,C[C@H](CC(=O)O)n1c(=O)[nH]/c(=N\c2ccc(Oc3ncccc3F)cc2)n(Cc2ccc(Cl)cc2)c1=O [Compound I-166],13
18,C[C@@H](Cn1c(=O)[nH]/c(=N\c2ccc(Oc3ccc(F)cn3)cc2)n(Cc2ccc(C(F)F)cc2)c1=O)C(=O)O [Compound I-167],19
19,C[C@@H](Cn1c(=O)[nH]/c(=N\c2ccc(Oc3cccc(F)n3)cc2)n(Cc2ccc(C(F)F)cc2)c1=O)C(=O)O [Compound I-168],12
20,C[C@@H](Cn1c(=O)[nH]/c(=N\c2ccc(Oc3ncccc3F)cc2)n(Cc2ccc(C(F)F)cc2)c1=O)C(=O)O [Compound I-169],21

row,Compound,IC50 [nM]
1,CCOC(=O)[C@H]1C[C@H](n2c(=O)[nH]/c(=N\c3ccc(Oc4ccccn4)cc3)n(Cc3ccc(Cl)cc3)c2=O)C1 [Compound I-170],15
2,CCOC(=O)[C@H]1C[C@@H](n2c(=O)[nH]/c(=N\c3ccc(Oc4ccccn4)cc3)n(Cc3ccc(Cl)cc3)c2=O)C1 [Compound I-171],9
3,CCOC(=O)[C@H]1C[C@@H](n2c(=O)[nH]/c(=N\c3ccc(Oc4ccc(Cl)cn4)cc3)n(Cc3ccc(C)cc3)c2=O)C1 [Compound I-173],8
4,O=c1[nH]/c(=N\c2ccc(Oc3ccccn3)cc2)n(Cc2ccc(Cl)cc2)c(=O)n1[C@H]1C[C@H](C(=O)O)C1 [Compound I-174],6
5,O=c1[nH]/c(=N\c2ccc(Oc3ccccn3)cc2)n(Cc2ccc(Cl)cc2)c(=O)n1[C@H]1C[C@@H](C(=O)O)C1 [Compound I-175],9
6,CCOC(=O)[C@H]1C[C@H](n2c(=O)[nH]/c(=N\c3ccc(Oc4ccc(F)cn4)cc3)n(Cc3ccc(C)cc3)c2=O)C1 [Compound I-176],7
7,CCOC(=O)[C@H]1C[C@@H](n2c(=O)[nH]/c(=N\c3ccc(Oc4ccc(F)cn4)cc3)n(Cc3ccc(C)cc3)c2=O)C1 [Compound I-177],6
8,Cc1ccc(Cn2c(=O)n([C@H]3C[C@@H](C(=O)O)C3)c(=O)[nH]/c2=N\c2ccc(Oc3ccc(Cl)cn3)cc2)cc1 [Compound I-179],6
9,CCOC(=O)[C@H]1C[C@H](n2c(=O)[nH]/c(=N\c3ccc(Oc4ccccn4)cc3)n(Cc3ccc(C)cc3)c2=O)C1 [Compound I-180],5
10,CCOC(=O)[C@H]1C[C@@H](n2c(=O)[nH]/c(=N\c3ccc(Oc4ccccn4)cc3)n(Cc3ccc(C)cc3)c2=O)C1 [Compound I-181],5
11,Cc1ccc(Cn2c(=O)n([C@H]3C[C@H](C(=O)O)C3)c(=O)[nH]/c2=N\c2ccc(Oc3ccc(F)cn3)cc2)cc1 [Compound I-182],8
12,Cc1ccc(Cn2c(=O)n([C@H]3C[C@@H](C(=O)O)C3)c(=O)[nH]/c2=N\c2ccc(Oc3ccc(F)cn3)cc2)cc1 [Compound I-183],12
13,Cc1ccc(Cn2c(=O)n([C@H]3C[C@H](C(=O)O)C3)c(=O)[nH]/c2=N\c2ccc(Oc3ccccn3)cc2)cc1 [Compound I-184],6
14,Cc1ccc(Cn2c(=O)n([C@H]3C[C@@H](C(=O)O)C3)c(=O)[nH]/c2=N\c2ccc(Oc3ccccn3)cc2)cc1 [Compound I-185],9
15,COC(=O)C[C@@H](C)n1c(=O)[nH]/c(=N\c2ccc(Oc3ccccn3)cc2)n(Cc2ccc(C)cc2)c1=O [Compound I-186],5
16,Cc1ccc(Cn2c(=O)n([C@H](C)CC(=O)O)c(=O)[nH]/c2=N\c2ccc(Oc3ccccn3)cc2)cc1 [Compound I-187],8
17,COC(=O)C[C@@H](C)n1c(=O)[nH]/c(=N\c2ccc(Oc3ncccc3F)cc2)n(Cc2ccc(C)cc2)c1=O [Compound I-188],7
18,Cc1ccc(Cn2c(=O)n([C@H](C)CC(=O)O)c(=O)[nH]/c2=N\c2ccc(Oc3ncccc3F)cc2)cc1 [Compound I-189],12
19,COC(=O)C[C@@H](C)n1c(=O)[nH]/c(=N\c2ccc(Oc3ccc(F)cn3)cc2)n(Cc2ccc(C)cc2)c1=O [Compound I-190],5
20,Cc1ccc(Cn2c(=O)n([C@H](C)CC(=O)O)c(=O)[nH]/c2=N\c2ccc(Oc3ccc(F)cn3)cc2)cc1 [Compound I-191],11
